From patent US20210220494A1, “COMPOSITIONS AND METHODS FOR TARGETED PARTICLE PENETRATION, DISTRIBUTION, AND RESPONSE IN MALIGNANT BRAIN TUMORS” (Memorial Sloan Kettering Cancer Center, priority 2016, published 2021)

What was measured:
NSCLC CNS metastases = conditions: pulsatile high-dose, cited from earlier work
macrophages = conditions: cited from earlier work
ECLC26 flank tumor = conditions: ECLC26 flank tumors, multi-dose, caliper measurements
Protocol: Tumor volume was measured using caliper measurements of the maximal dimensions of the tumor daily.
Nude mice were implanted with 2 million ECLC26 cells. Mice bearing tumors were treated by i.v. of 200 μL saline or 15 μM Gef-NDC for 2 doses of Gavage with 15 mg/ml Gefitinib, 10 μL/g for 10 days.

[1] = cited from earlier work

C#Cc1cccc(Nc2ncnc3cc(OCCOC)c(OCCOC)cc23)c1 [erlotinib]
response of CNS metastases (NSCLC CNS metastases; 3 patients): the response is unpredictable, even at high dose | CNS penetration (NSCLC CNS metastases; patients): improves CNS penetration for NSCLC metastases

CNC(=O)c1cc(Oc2ccc3nc(N[C@@H]4CCCC[C@H]4O)sc3c2)ccn1 [BLZ945]
expression of M2 polarization markers in TAMs (macrophages): decreased expression of M2 polarization markers | phagocytic activity of macrophages (macrophages): upregulated

COc1cc2ncnc(Nc3ccc(F)c(Cl)c3)c2cc1OCCCN1CCOCC1 [Gefitinib, gefitinib]
tumor volume over time (ECLC26 flank tumor): steady decrease in tumor volume | protein binding [1]: highly protein bound
